Experimental data as given in patent US20220168317A1, “Therapeutic Thiazine Dye Compositions and Methods of Use” (AB BioInnovations, Inc., priority 2020, published 2022).

Experiments:
Conditions in all cases: final concentration in well; CAMHB, 37° C., 24 hours; single compound
[1] = test system: Pseudomonas aeruginosa ATCC 27853
Experimental: (§1) Similarly, starting with a 1% methylene blue solution, a 2-fold serial dilution series was generated consisting of 24 members having a methylene blue concentration ranging from 1% to 1.1920929×10^−7%. Each dilution series was prepared using Cation-Adjusted Muller Hinton broth (CAMHB).
(§2) For each dilution series, 0.1 ml of each dilution, in order from most concentrated to least concentrated, was placed into a separate well of a 96-well tissue-culture plate. Select bacterial species were diluted in CAMHB so that 0.1 ml contained approximately 1×10^6 bacteria per ml. […] The tissue-culture plates were incubated at 37° C. for 24 hours.
(§3) After 24 hours, each well was visually assessed using a light microscope for bacterial growth.
(§4) 0.1 ml of each dilution, in order from most concentrated to least concentrated, was placed into an individual well of a 96-well tissue-culture plate. Select bacterial species were diluted in CAMHB so that 0.1 ml contained approximately 1×10^6 bacteria per ml. […] The tissue-culture plates were incubated at 37° C. for 24 hours.
(§5) After 24 hours, each well was visually assessed using a light microscope for bacterial growth. The dilution with the lowest concentrations capable of inhibiting bacterial growth was defined as the MIC.

[2] = test system: Staphylococcus aureus ATCC BAA-44
Experimental: as §1, §2, §3, §4, §5

[3] = test system: Klebsiella pneumoniae ATCC 13883
Experimental: Each dilution series was prepared using Cation-Adjusted Muller Hinton broth (CAMHB).
as §2, §3

Row | MIC [1] [%] | MIC [2] [%] | MIC [3] [%] | Compound
1 | 0.5 | 0.003906 | 0.25 | CN(C)c1ccc2nc3ccc(=[N+](C)C)cc-3sc2c1 [Methylene Blue, 3,7-bis(dimethylamine)-phenothiazin-5-ium chloride]
2 | 0.332 | 0.332 | 0.332 | O=P(O)(O)O [Phosphoric Acid, phosphoric acid]
